Format in all cases: cell-based
The subject of assay [1] is IL-2-FL/Gaussia Luciferase. Nature of the assay: Dox Induced IL2-FL-Gluc Assay. Summed up: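 Compounds were added together with doxycycline in DMSO/media and incubated at 37° C., 5% CO2. The cells were a stably selected line carrying IL-2-FL/Gaussia luciferase under T-REx inducible control. Structures drawn without stereochemistry were tested as stereoisomer mixtures.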

In assay [2] the test system is HER3-ss+4aa/Gaussia Luciferase. Nature of the assay: Dox-Induced Her3-ss-Gluc Assay. The essentials: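 Compounds, diluted in DMSO/media containing doxycycline, were incubated at 37° C., 5% CO2 with cells seeded one day earlier. The cells stably express HER3-ss+4aa/Gaussia luciferase under T-REx control. Where no stereochemistry is shown, data refer to the mixture of stereoisomers.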

For assay [3], the system named is human multiple myeloma cell line U266B1. The assay can be described thus: U266 Cell Viability Assay. As to conditions: U-266, 48 hr, U266B1 cells, Celltiter-Glo, read-out: 48 hr U266 Viability Celltiter-Glo: Mean EC50. Summed up: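 Viability measured by CellTiter-Glo luciferase signal after 48 h compound exposure (37 °C, 5% CO2) of U266B1 cells in 384-well format. Where stereochemistry is not shown, data refer to the stereoisomer mixture.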
In general terms: In ATP-based viability assays light output follows the ATP content of the culture.

In assay [4] the test system is human multiple myeloma cell line NCI-H929. Nature of the assay: H929 Cell Viability Assay. As to conditions: 48 hr, NCI-H929 cells, Celltiter-Glo, read-out: 48 hr H929 Viability Celltiter-Glo: Mean EC50. As for the experimental part:
Plates were incubated at 37° C., 5% CO2 for 48 hours. After 48 hours, Celltiter-Glo® (Promega) was added to each well and luciferase signal was quantified using Tecan Infinite M1000 Pro for cell viability determination.
For chemical structures that include one or more stereoisomers, but are illustrated without indicating stereochemistry, the assay data refers to a mixture of stereoisomers.

In assay [5] the test system is TNFα-FL/Gaussia Luciferase. The assay can be described thus: Dox Induced TNFα-FL-Gluc Assay. Summed up:
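Compounds were added in doxycycline-containing DMSO/media to cells plated the previous day and incubated at 37° C under 5% CO2. These cells stably express a TNFα-FL/Gaussia luciferase cDNA whose expression is under T-REx (Dox-inducible) control, selected with Hygromycin and Blasticidin.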

For assay [6], the system named is PD1-ss+10aa/Gaussia Luciferase. Nature of the assay: Dox-Induced PD1-ss-Gluc Assay. The essentials: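 Compounds, diluted in DMSO/media with doxycycline, were added to cells plated a day earlier and kept at 37° C under 5% CO2. The cells stably express a Gaussia luciferase construct fused to PD1-ss+10aa, induced via the T-REx system. Unassigned stereochemistry means mixture data.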

Where [7] appears, read: 24 hr doxycycline induction, 293FRT/TO cells, Gaussia luciferase signal; read-out: 24 hr Dox Inducible IL2FLGIuc 293FRT/TO: Mean IC50.
Where [8] appears, read: 24 hr doxycycline induction, 293FRT/TO cells, Gaussia luciferase signal; read-out: 24 hr Dox Inducible Her3(ss + 4)Gluc 293FRT/TO: Mean IC50.
The mark [9] stands for this setting: 24 hr doxycycline induction, 293FRT/TO cells, Gaussia luciferase signal; read-out: 24 hr Dox Inducible TNFaFLGluc 293FRT/TO: Mean IC50.
[10] abbreviates: 24 hr doxycycline induction, 293FRT/TO cells, Gaussia luciferase signal; read-out: 24 hr Dox Inducible PD1ssGluc 293FRT/TO: Mean IC50.
[11] abbreviates: 24 hr, doxycycline-induced, 293FRT/TO cells; read-out: 24 hr Dox Inducible IL2FLGIuc 293FRT/TO: Mean IC50.
Where [12] appears, read: 24 hr, doxycycline-induced, 293FRT/TO cells; read-out: 24 hr Dox Inducible Her3(ss + 4)Gluc 293FRT/TO: Mean IC50.
Setting [13] is: 24 hr, doxycycline-induced, 293FRT/TO cells; read-out: 24 hr Dox Inducible TNFaFLGluc 293FRT/TO: Mean IC50.
Setting [14] is: 24 hr, doxycycline-induced, 293FRT/TO cells; read-out: 24 hr Dox Inducible PD1ssGluc 293FRT/TO: Mean IC50.

Molecules are shown by their SMILES. pEC50, pIC50: −log10 of the molar value. Like-named read-outs stand apart in the source and are kept apart here. Some results are limits rather than exact numbers.

In general, pEC50 refers to the EC50 on a negative log10 scale, so that one unit is a factor of ten.

As to `COc1cccc(C(C)OC(C)(C)c2csc(NC(=O)c3cccn3Cc3ccncc3)n2)c1` (stereo not drawn) [Compound A4, N-(4-(2-(1-(3-methoxyphenyl)ethoxy)propan-2-yl)thiazol-2-yl)-1-(pyridin-4-ylmethyl)-1H-pyrrole-2-carboxamide], the pIC50 in assay [1] (setting [7]) is 6.83; in assay [2] (setting [8]), 7.04; in assay [5] (setting [9]), 6.42; in assay [6] (setting [10]), 7.42. Also, the pEC50 is less than 4.60 in assay [3] and 5.56 in assay [4].
In the case of `CCc1cnccc1Cn1cccc1C(=O)Nc1nc(C(C)(C)OC(C)C)cs1` [Compound A250, 1-((3-ethylpyridin-4-yl)methyl)-N-(4-(2-isopropoxypropan-2-yl)thiazol-2-yl)-1H-pyrrole-2-carboxamide], the pIC50 was 5.13 in assay [1] (setting [7]), 4.81 in assay [2] (setting [8]), less than 4.60 in assay [5] (setting [9]) and 5.28 in assay [6] (setting [10]). The pEC50 in assay [3] and in assay [4] was less than 4.60 in each case.
In the case of `COc1ccc([C@@H]2C[C@H]2c2csc(NC(=O)c3cccn3Cc3ccncc3)n2)nc1` [Compound A311], the pIC50 in assay [1] (setting [11]) was 6.06; in assay [2] (setting [12]), 6.29; in assay [5] (setting [13]), 5.48; in assay [6] (setting [14]), 6.76. Besides, the pEC50 in assay [3] was 5.21; in assay [4] it was 5.22.
For `CC(C)(C)c1cc(NC(=O)c2cccn2Cc2ccncc2)no1` [Compound B4, N-(5-(tert-butyl)isoxazol-3-yl)-1-(pyridin-4-ylmethyl)-1H-pyrrole-2-carboxamide], the pIC50 in assay [1] (setting [11]) is 4.65; in assay [2] (setting [12]), 4.95; in assay [5] (setting [13]), less than 4.60; in assay [6] (setting [14]), 5.52. Moreover, the pEC50 in assay [3] and in assay [4] was less than 4.60 each time.
On to `O=C(Nc1nc(/C=C/c2ccc(N3CCCCC3)cc2)cs1)c1cccn1Cc1ccncc1` [Compound A233], for which the pIC50 in assay [1] (setting [7]) was 6.20; in assay [2] (setting [8]), 6.52; in assay [5] (setting [9]), 5.65; in assay [6] (setting [10]), 7.25. For the same compound, the negative logarithm of the EC50 (pEC50) was less than 4.60 in assay [3] and 5.24 in assay [4].
As for `CC(C)(C)[Si](O[C@H]1C[C@H](c2csc(NC(=O)c3cccn3Cc3ccncc3)n2)N(c2ccccc2)C1)(c1ccccc1)c1ccccc1` [Compound A323], the pIC50 in assay [1] (read-out: 24 hr Dox Inducible IL2FLGIuc 293FRT/TO: Mean IC50; 24 hr, doxycycline-induced, 293FRT/TO cells) was 8.00; in assay [2] (read-out: 24 hr Dox Inducible Her3(ss + 4)Gluc 293FRT/TO: Mean IC50; 24 hr, doxycycline-induced, 293FRT/TO cells), 7.89; in assay [5] (read-out: 24 hr Dox Inducible TNFaFLGluc 293FRT/TO: Mean IC50; 24 hr, doxycycline-induced, 293FRT/TO cells), 7.96; in assay [6] (read-out: 24 hr Dox Inducible PD1ssGluc 293FRT/TO: Mean IC50; 24 hr, doxycycline-induced, 293FRT/TO cells), 8.15. The pEC50 in assay [3] is less than 4.60; in assay [4], 6.93.
Regarding `O=C(Nc1nc(C2CCN(c3ccccc3)CC2)cs1)c1cccn1CCCc1ccncc1` [Compound A285], the pIC50 in assay [1] (setting [7]) was 5.54; in assay [2] (setting [8]), 5.74; in assay [5] (setting [9]), 4.79; in assay [6] (setting [10]), 5.91. Further, the negative-log EC50 (pEC50) in assay [3] is 4.78; in assay [4], 4.75.
On to `COc1cnc(NC(=O)c2cccn2Cc2ccncc2)s1` [Compound A82], for which the pIC50 in assay [1] (setting [7]) is less than 4.60; in assay [2] (setting [8]), less than 4.60; in assay [5] (setting [9]), less than 4.60; in assay [6] (setting [10]), 5.33. The pEC50 in assay [3] and in assay [4] was less than 4.60 each time.
`O=C(Nc1nc(N2CCCC(c3ccccc3)C2)cs1)c1cccn1Cc1ccncc1` (stereo not drawn) [Compound A265]: the pIC50 in assay [1] (setting [7]) is 5.14; in assay [2] (setting [8]), less than 4.60; in assay [5] (setting [9]) it was less than 4.60; in assay [6] (setting [10]) it was 5.04. In addition, the pEC50 in assay [3] and in assay [4] was less than 4.60 each time.
In the case of `CC(C)OC(C)(C)c1csc(NC(=O)c2cccn2[C@@H](C)c2ccncc2)n1` [Compound A74, (S)-N-(4-(2-isopropoxypropan-2-yl)thiazol-2-yl)-1-(1-(pyridin-4-yl)ethyl)-1H-pyrrole-2-carboxamide], the pIC50 is 5.37 in assay [1] (setting [7]), 5.27 in assay [2] (setting [8]), less than 4.60 in assay [5] (setting [9]) and 5.59 in assay [6] (setting [10]). Besides, the pEC50 in assay [3] and in assay [4] was less than 4.60 throughout.
Turning to `NC(=O)c1ccc(/C=C/c2csc(NC(=O)c3cccn3Cc3ccncc3)n2)cc1` [Compound A231], the pIC50 was 5.15 in assay [1] (setting [7]), less than 4.60 in assay [2] (setting [8]), 4.95 in assay [5] (setting [9]) and 6.30 in assay [6] (setting [10]). Besides, the negative-log EC50 (pEC50) was less than 4.60 in assay [3] and 4.77 in assay [4].
For the compound `O=C(Nc1nc([C@H]2CCN(c3ccccc3)C2)cs1)c1cccn1Cc1ccncc1` [Compound A290], the pIC50 in assay [1] (setting [7]) was 5.85; in assay [2] (setting [8]), 6.19; in assay [5] (setting [9]) it was 5.40; in assay [6] (setting [10]), 6.58. Moreover, the results for the negative-log EC50 (pEC50) in assay [3] and in assay [4] were 4.68 and 4.82, respectively.
As to `O=C(Nc1nc(/C=C/c2ccc3ncccc3c2)cs1)c1cccn1Cc1ccncc1` [Compound A237], the pIC50 was 5.73 in assay [1] (setting [7]), 5.95 in assay [2] (setting [8]), less than 4.60 in assay [5] (setting [9]) and 6.54 in assay [6] (setting [10]). Further, the negative-log EC50 (pEC50) was less than 4.60 in assay [3] and 4.73 in assay [4].
Regarding `COc1cccc(CCc2csc(NC(=O)c3cccn3Cc3ccncc3)n2)c1` [Compound A176], the pIC50 is 5.92 in assay [1] (setting [7]), 6.19 in assay [2] (setting [8]), 5.54 in assay [5] (setting [9]) and 6.57 in assay [6] (setting [10]). The results for the pEC50 in assay [3] and in assay [4] were less than 4.60 and 4.68, respectively.
`CC(=O)N1CCC(CCCn2cccc2C(=O)Nc2nc(C(C)(C)OC(C)C)cs2)CC1` [Compound A101, 1-(3-(1-acetylpiperidin-4-yl)propyl)-N-(4-(2-isopropoxypropan-2-yl)thiazol-2-yl)-1H-pyrrole-2-carboxamide]: the pIC50 in assay [1] (setting [7]), in assay [2] (setting [8]), in assay [5] (setting [9]) and in assay [6] (setting [10]) was less than 4.60 throughout. In addition, the pEC50 in assay [3] and in assay [4] was less than 4.60 each time.
For `COc1ccc(O[C@H]2C[C@@H](c3csc(NC(=O)c4cccn4Cc4ccncc4)n3)C2)nc1` [Compound A309], the pIC50 in assay [1] (setting [11]) was 6.70; in assay [2] (setting [12]), 7.15; in assay [5] (setting [13]), 6.14; in assay [6] (setting [14]), 7.62. Moreover, the negative logarithm of the EC50 (pEC50) in assay [3] is 4.83; in assay [4], 5.21.
Regarding `CC(C)(OCC1CCCCO1)c1csc(NC(=O)c2cccn2Cc2ccncc2)n1` (stereo not drawn) [Compound A39, 1-(pyridin-4-ylmethyl)-N-(4-(2-((tetrahydro-2H-pyran-2-yl)methoxy)propan-2-yl)thiazol-2-yl)-1H-pyrrole-2-carboxamide], the pIC50 was 5.87 in assay [1] (setting [7]), 5.83 in assay [2] (setting [8]), 4.88 in assay [5] (setting [9]) and 6.14 in assay [6] (setting [10]). In addition, the negative logarithm of the EC50 (pEC50) in assay [3] and in assay [4] was less than 4.60 in each case.
Take `Cc1ccc(S(=O)(=O)CCOC(C)(C)c2csc(NC(=O)c3cccn3Cc3ccncc3)n2)cc1` [Compound B3, 1-(pyridin-4-ylmethyl)-N-(4-(2-(2-tosylethoxy)propan-2-yl)thiazol-2-yl)-1H-pyrrole-2-carboxamide]: the pIC50 is 5.53 in assay [1] (setting [11]), 5.37 in assay [2] (setting [12]), less than 4.60 in assay [5] (setting [13]) and 5.55 in assay [6] (setting [14]). For the same compound, the negative logarithm of the EC50 (pEC50) in assay [3] and in assay [4] was less than 4.60 throughout.
On to `Cc1ccc2nc(NC(=O)c3cccn3Cc3ccncc3)sc2c1` [Compound A73], for which the pIC50 in assay [1] (setting [7]) was 5.69; in assay [2] (setting [8]), 5.14; in assay [5] (setting [9]), less than 4.60; in assay [6] (setting [10]), 5.61. The negative logarithm of the EC50 (pEC50) in assay [3] and in assay [4] was less than 4.60 throughout.
